Experiment [1] in a line: inhibitors of clade B AD8 Env fusion, dose response, cell-based, cherry-pick (AID 652062).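 Note: luciferase signal from cell-cell fusion driven by HIV-1 clade B AD8 Env; potency is for inhibitors of fusion seen as a drop in luminescence.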 The experiment is classed as functional.
The nature of experiment [2]: NIH:OVCAR-3 ovarian cancer cell cytotoxicity, dose response, PAX8 inhibitor project, plate reader, dry powder samples (AID 743044). It counts as functional, cell-based.
The target of a further experiment is Paired box protein Pax-8 (Homo sapiens, UniProt Q06710). Kind of experiment: inhibitors of PAX8-driven TPO luciferase reporter, dose response, RMG-I cells, cherry-pick (AID 687027).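 Note: luciferase reporter driven by Pax8 target thyroperoxidase promoter measured by SteadyGlo luminescence.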 It counts as functional, cell-based. (Reporter assays use an easily measured gene product as a stand-in for the process of interest.)
A further experiment concerns the target T1, Leucine aminopeptidase (Plasmodium falciparum 3D7, UniProt Q8IL11).
T1 sequence (Q8IL11 whole entry): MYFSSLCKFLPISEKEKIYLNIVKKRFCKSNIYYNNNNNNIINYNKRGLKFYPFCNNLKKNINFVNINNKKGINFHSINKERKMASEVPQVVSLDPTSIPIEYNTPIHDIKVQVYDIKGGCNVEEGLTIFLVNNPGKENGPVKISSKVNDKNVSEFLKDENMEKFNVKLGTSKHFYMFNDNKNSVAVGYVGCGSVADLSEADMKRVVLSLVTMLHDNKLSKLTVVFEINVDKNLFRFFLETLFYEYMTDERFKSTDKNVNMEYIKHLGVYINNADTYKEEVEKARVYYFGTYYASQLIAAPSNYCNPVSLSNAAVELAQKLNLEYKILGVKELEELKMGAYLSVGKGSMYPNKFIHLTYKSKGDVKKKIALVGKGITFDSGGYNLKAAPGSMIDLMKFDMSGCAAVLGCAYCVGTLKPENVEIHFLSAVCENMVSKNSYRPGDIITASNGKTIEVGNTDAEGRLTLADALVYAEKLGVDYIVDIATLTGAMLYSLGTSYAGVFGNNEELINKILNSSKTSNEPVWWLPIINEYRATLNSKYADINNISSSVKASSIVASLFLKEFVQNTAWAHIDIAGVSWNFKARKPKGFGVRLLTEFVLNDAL
The experiment can be described thus: P. falciparum M17LAP inhibitors, primary screen, biochemical, fluorogenic H-Leu-NHMec substrate, 1536-well (AID 1619). The experiment is classed as functional.

Experiment [3] deals with T2, Fatty acid synthase (Homo sapiens, UniProt P49327). Kind of experiment: FAS thioesterase domain inhibitors, dose response, biochemical, endpoint fluorescence intensity, uHTS hits (AID 624327).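 Note: fluorescence from hydrolysis of an O-methyl fluorescein acyl ester substrate by the enzyme.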 The experiment is classed as functional.
The target of experiment [4] is T2, Fatty acid synthase. The experiment can be described thus: FAS thioesterase domain inhibitors, dose response, biochemical, kinetic fluorescence intensity (AID 624326).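 Note: rate of fluorescence rise from hydrolysis of a fluorogenic O-methyl fluorescein ester substrate.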 It counts as functional.
Experiment [5] has as its target T3, Corticotropin-releasing factor receptor 2/Corticotropin-releasing factor-binding protein (Homo sapiens, UniProt P24387+Q13324).
T3 sequence (Q13324 whole entry): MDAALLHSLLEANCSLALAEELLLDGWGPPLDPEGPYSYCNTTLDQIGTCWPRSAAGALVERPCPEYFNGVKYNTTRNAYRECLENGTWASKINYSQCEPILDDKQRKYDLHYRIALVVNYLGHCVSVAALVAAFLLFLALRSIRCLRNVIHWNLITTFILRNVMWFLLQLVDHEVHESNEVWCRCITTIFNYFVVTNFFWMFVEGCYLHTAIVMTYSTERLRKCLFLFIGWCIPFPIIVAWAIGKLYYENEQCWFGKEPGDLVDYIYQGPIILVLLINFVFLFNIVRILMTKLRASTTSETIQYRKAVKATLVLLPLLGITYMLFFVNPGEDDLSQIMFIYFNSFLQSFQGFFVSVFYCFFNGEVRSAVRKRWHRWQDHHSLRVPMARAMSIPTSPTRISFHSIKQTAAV
T3 sequence (P24387 whole entry): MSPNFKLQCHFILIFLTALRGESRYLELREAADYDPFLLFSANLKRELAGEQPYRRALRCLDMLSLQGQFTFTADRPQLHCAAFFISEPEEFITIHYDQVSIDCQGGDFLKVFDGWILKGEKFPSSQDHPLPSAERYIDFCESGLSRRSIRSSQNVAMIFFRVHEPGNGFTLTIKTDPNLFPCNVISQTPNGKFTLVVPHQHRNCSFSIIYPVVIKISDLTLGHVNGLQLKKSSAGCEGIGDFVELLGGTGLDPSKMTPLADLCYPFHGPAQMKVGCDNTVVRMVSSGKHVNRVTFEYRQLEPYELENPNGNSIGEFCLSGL
Kind of experiment: Dose Response confirmation of uHTS hits for small molecule antagonists of the CRF-binding protein and CRF-R2 receptor complex. The experiment is classed as functional. To be noted: read-out: IC50_Mean.

The target of experiment [6] is T3, Corticotropin-releasing factor receptor 2/Corticotropin-releasing factor-binding protein. The experiment can be described thus: activators of CRF receptor 2 with binding protein – uHTS hits, confirmation (AID 602473). It counts as functional. To be noted: read-out: EC50_Mean.
The next experiment addresses T4, Protein RecA (Mycobacterium tuberculosis, UniProt P9WHJ3).
T4 sequence (P9WHJ3 whole entry): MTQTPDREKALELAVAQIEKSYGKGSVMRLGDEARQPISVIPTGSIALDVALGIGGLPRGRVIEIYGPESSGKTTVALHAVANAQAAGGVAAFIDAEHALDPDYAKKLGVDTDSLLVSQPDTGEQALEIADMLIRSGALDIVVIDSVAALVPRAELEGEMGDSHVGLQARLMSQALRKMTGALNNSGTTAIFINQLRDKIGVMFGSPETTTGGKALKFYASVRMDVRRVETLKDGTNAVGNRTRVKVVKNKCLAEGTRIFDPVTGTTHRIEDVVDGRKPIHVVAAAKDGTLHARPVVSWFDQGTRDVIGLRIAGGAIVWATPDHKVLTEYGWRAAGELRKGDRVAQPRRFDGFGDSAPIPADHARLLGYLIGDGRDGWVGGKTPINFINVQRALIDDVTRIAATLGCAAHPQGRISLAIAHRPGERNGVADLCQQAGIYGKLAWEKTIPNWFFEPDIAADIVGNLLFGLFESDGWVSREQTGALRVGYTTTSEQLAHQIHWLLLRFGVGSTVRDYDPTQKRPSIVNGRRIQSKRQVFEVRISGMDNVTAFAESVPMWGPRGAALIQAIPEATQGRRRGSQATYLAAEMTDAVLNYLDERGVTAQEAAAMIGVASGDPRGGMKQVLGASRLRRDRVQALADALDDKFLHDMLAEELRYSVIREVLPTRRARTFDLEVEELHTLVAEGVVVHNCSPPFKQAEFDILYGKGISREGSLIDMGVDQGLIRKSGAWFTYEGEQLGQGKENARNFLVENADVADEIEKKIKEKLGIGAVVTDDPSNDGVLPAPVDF
Kind of experiment: Fluorescence Cell-Free Homogeneous Dose Retest to Identify Inhibitors of RecA-Intein Splicing Activity. [Related pubchem assays (depositor defined):AID2097, AID2223, AID489010, AID492950]. The experiment is classed as functional.

The target in experiment [7] is T5, Replicative DNA helicase DnaB (Mycobacterium tuberculosis, UniProt P9WMR3).
T5 sequence (P9WMR3 whole entry): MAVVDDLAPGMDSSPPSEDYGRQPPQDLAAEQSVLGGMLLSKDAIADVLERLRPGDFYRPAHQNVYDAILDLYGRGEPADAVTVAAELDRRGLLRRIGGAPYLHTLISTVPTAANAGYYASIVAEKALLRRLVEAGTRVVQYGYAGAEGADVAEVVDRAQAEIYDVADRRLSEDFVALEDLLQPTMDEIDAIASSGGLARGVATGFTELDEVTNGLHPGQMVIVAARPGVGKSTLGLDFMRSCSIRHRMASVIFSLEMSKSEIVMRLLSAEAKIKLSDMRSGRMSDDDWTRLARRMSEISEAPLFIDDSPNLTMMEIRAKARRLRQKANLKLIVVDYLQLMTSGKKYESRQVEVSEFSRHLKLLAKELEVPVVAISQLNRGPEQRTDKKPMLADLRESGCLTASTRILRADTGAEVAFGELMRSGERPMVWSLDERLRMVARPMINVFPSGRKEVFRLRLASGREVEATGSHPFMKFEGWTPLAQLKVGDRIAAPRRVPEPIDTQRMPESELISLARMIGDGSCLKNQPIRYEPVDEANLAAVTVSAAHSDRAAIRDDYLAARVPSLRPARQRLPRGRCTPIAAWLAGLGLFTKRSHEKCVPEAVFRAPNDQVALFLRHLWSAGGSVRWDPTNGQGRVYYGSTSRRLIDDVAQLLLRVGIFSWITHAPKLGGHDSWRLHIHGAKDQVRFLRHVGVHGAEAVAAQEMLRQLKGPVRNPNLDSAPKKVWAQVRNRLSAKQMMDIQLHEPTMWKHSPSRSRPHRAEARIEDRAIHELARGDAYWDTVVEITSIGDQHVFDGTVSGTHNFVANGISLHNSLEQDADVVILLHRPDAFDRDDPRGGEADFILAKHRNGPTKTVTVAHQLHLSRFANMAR
The experiment can be described thus: DnaB intein splicing inhibitors, dose response, biochemical, cell-free fluorescence (AID 449749). It counts as functional.

Active and inactive are the calls of the source.

The source of these data is ChEMBL document CHEMBL1201862, “PubChem BioAssay data set” (2004).

T2 sequence (P49327 whole entry, the tested form may be a part): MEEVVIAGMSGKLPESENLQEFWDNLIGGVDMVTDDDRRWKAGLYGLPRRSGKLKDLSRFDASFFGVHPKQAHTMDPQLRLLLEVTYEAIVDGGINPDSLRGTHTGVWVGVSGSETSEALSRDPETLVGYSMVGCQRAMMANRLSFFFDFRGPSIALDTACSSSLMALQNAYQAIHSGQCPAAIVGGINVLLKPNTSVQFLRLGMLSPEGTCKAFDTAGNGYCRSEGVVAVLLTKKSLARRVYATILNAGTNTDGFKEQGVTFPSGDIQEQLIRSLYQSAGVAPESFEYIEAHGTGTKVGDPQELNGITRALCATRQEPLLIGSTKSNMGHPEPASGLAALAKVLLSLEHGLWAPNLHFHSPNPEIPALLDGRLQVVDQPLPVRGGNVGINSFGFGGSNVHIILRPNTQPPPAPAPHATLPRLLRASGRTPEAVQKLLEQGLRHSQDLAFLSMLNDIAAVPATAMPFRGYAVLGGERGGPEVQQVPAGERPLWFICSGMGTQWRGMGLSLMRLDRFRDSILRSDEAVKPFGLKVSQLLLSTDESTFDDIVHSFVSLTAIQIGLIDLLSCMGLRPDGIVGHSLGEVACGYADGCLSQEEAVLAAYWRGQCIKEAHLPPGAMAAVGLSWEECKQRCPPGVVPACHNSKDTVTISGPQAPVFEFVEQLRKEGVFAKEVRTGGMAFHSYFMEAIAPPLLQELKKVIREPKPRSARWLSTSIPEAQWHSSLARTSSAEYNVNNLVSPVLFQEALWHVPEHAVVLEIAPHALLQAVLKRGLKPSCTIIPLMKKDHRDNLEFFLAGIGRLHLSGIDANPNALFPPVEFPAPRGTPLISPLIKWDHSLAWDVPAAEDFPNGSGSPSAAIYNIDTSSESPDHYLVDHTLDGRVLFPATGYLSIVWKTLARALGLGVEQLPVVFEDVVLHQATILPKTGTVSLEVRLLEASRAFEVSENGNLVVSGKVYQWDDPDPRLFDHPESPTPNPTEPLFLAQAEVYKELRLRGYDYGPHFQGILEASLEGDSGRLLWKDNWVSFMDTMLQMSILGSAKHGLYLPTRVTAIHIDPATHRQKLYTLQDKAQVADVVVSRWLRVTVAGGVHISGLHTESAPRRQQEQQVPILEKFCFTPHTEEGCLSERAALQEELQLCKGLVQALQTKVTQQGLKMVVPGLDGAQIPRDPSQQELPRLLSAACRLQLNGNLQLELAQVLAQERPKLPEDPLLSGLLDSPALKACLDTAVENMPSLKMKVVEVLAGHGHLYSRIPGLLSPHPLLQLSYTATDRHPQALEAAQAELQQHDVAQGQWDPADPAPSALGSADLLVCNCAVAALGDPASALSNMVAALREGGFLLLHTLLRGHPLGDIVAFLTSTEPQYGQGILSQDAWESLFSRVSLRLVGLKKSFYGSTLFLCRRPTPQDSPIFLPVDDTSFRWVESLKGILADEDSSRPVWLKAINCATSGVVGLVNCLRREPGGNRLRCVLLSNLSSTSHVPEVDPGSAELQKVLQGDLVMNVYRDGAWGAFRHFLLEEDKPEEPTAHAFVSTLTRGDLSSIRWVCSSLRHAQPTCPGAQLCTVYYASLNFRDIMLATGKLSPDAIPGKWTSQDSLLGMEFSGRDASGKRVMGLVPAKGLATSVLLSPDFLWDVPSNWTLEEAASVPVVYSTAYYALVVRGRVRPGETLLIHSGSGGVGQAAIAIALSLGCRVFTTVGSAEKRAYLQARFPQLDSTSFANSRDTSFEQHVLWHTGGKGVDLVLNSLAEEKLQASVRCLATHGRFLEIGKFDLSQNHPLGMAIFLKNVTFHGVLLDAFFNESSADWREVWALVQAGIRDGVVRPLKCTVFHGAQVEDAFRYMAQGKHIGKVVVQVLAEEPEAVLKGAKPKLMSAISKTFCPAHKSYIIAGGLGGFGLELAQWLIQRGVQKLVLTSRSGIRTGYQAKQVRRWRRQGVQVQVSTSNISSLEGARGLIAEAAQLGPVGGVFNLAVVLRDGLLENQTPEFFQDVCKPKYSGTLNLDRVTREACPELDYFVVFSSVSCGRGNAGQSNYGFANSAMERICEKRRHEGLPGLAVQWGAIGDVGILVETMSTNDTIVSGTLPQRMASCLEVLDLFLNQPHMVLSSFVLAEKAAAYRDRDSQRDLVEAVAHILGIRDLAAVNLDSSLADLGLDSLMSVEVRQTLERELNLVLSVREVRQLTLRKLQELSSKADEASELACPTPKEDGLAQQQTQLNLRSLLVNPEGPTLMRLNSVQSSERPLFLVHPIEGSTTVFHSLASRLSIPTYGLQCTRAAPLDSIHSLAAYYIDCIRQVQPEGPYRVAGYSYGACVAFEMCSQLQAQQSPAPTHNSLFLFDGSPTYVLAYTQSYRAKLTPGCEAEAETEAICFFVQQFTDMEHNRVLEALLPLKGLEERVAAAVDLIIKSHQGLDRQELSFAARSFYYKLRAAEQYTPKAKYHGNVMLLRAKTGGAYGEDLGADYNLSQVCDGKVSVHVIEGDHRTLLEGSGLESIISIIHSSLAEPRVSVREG
Chain of Paired box protein Pax-8 (Q06710 whole entry): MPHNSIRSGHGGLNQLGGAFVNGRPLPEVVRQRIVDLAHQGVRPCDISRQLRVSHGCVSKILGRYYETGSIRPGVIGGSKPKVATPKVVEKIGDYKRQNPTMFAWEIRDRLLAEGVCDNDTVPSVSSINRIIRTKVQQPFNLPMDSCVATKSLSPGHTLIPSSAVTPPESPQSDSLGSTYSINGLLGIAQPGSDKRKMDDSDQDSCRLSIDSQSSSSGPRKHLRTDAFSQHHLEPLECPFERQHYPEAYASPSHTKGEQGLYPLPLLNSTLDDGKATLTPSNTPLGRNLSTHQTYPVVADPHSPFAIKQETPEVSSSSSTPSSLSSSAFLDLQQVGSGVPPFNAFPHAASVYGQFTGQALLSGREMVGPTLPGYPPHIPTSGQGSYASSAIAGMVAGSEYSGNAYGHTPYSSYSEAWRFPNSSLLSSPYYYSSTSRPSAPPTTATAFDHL

For `O=C1COc2ccc(-c3cs/c(=N\c4ccc(OC(F)F)cc4)n3CC3CCCO3)cc2N1` (configuration not stated), in [1], the AC50 was 18.6 µM (active).

For `C[C@@H]1CN([C@H](C)CO)C(=O)c2cc(NC(=O)Nc3ccc(F)cc3)ccc2O[C@@H](C)CCCCO[C@H]1CN(C)S(=O)(=O)c1ccccc1`, the AC50 in [2] was 35.3 µM (active); at Paired box protein Pax-8 it was 4.82 µM (active). In the case of `N#Cc1c(NC(=O)Cn2cnc3ccccc3c2=O)oc(-c2ccccc2)c1-c1ccccc1`, the IC50 at Leucine aminopeptidase is 1.47 µM (active). With `COc1ccc(/C=C(/NC(=O)c2ccc([N+](=O)[O-])cc2)C(=O)NC(C)(C)C)cc1`, the IC50 on Fatty acid synthase [3] is 3.45 µM (active); on Fatty acid synthase [4] it was 2.56 µM (active). The like results for `O=C(Nn1c(C2CCCCC2)nc2ccccc2c1=O)c1ccc(Cl)c([N+](=O)[O-])c1` were, in that order, 12.8 µM (active) and 11.2 µM (active).

With `CCCCCCn1c(=O)c(F)cn(Cc2ccc(OC)c([N+](=O)[O-])c2)c1=O`, the IC50 at Fatty acid synthase [3] was 10.2 µM (active); in experiment [5] it was > 47.1 µM (inactive); on Fatty acid synthase [4] it was 11.3 µM (active). In addition, in [6], the EC50 was > 53 µM (inactive). With `COc1ccc(C(=O)N/C(=C\c2cn(S(=O)(=O)N(C)C)c3ccccc23)C(=O)NCCCN2CCOCC2)cc1`, the IC50 was 8.48 µM (active) on Fatty acid synthase [3] and 7.83 µM (active) on Fatty acid synthase [4].

Consider `N#Cc1c(C(F)(F)F)cc(-c2cccs2)nc1SC(C(=O)O)c1ccccc1` (configuration not stated), for which the IC50 on Fatty acid synthase [3] is 4.45 µM (active); on Fatty acid synthase [4], 5.81 µM (active). Regarding `CC(C)C(=O)Nc1nnc(SCC(=O)Nc2ccc3c(c2)OCCO3)s1`, the IC50 on Leucine aminopeptidase is 18.9 µM (active).

For `CN(C)c1ccc(/C=N/NC(=O)c2nonc2N)cc1[N+](=O)[O-]`, the IC50 at Leucine aminopeptidase is 56.1 µM (active). Take `CN1C[C@H](C(=O)N[C@]2(C)O[C@@]3(O)[C@@H]4CCCN4C(=O)[C@H](Cc4ccccc4)N3C2=O)CC2c3cccc4[nH]cc(c34)C[C@H]21` (some centres not stated): the IC50 on Fatty acid synthase [3] was 10.4 µM (active); at Fatty acid synthase [4], 8.09 µM (active). Regarding `O=C(CN1C(=O)c2ccccc2C1=O)NCC1COc2ccccc2O1` (configuration not stated), the IC50 at Leucine aminopeptidase was 15.6 µM (active). On to `CCc1cccc(NC(=O)CSCc2cc(O)[nH]n2)c1`, for which, on Protein RecA, the EC50 is 2.37 µM (active). The AC50 in experiment [7] was 3.37 µM (active). Further, the IC50 on Leucine aminopeptidase was 25.9 µM (active). With `CCOc1ccc(NC(=O)Cc2ccccc2)c([N+](=O)[O-])c1`, the IC50 on Leucine aminopeptidase is 2.92 µM (active). `O=C(O)CC(Cc1ccccc1)C(=O)Nc1ccc([N+](=O)[O-])cc1` (configuration not stated): the IC50 on Leucine aminopeptidase is 15.7 µM (active). Take `CC(=O)NS(=O)(=O)c1ccc(/N=c2\ssc3c2-c2cc(C)c(C)cc2NC3(C)C)cc1`: the IC50 at Leucine aminopeptidase was 3.72 µM (active).

The AC50 is the concentration at which the activity in the assay is half-maximal.
